The values that follow come from paper PMC12263422, “Cryo-EM structure of the human THIK-1 K2P K^+ channel reveals a lower Y gate regulated by lipids and anesthetics” (Nature Structural & Molecular Biology, 2025).

Several values for one entry are separate records, joined by “and”; a condition that tells them apart may be missing. Equal values may be shown once.

For the assay, the target named is T1, human K2P12.1 THIK-2 (THIK-2*) (Homo sapiens, UniProt Q9HB15, R11A/R12A/R14A/R15A/R16A).
T1 construct: expressed in transfected cells; host or cells: Xenopus oocytes (mRNA injection)
T1 sequence (Q9HB15 1-430 R11A/R12A/R14A/R15A/R16A): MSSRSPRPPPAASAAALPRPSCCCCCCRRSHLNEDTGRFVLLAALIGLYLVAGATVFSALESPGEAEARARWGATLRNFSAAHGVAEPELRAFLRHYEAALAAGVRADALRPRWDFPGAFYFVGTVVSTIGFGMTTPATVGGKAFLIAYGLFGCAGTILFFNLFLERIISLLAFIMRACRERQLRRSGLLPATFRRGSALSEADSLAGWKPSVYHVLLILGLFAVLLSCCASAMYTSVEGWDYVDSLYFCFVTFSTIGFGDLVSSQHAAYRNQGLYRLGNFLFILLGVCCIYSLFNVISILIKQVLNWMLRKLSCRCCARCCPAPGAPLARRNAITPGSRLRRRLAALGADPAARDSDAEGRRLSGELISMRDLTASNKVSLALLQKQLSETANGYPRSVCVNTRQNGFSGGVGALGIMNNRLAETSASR
Put plainly: Inside-out excised patch recordings, oocytes, THIK-2* (ER-retention mutant). It counts as cell-based. The settings on record: for Normalized currents: THIK-2* (unstimulated). An excerpt:
Human K2P13.1 THIK-1 (GenBank accession number: NM_022054) and human K2P12.1 THIK-2 (NM_022055.1) were used in this study. For functional expression studies, the respective K^+ channel subtype coding sequences were subcloned into the oocyte expression vector pSGEM or the dual-purpose expression vector pFAW[41] and verified by sequencing. All mutant channels were obtained by site-directed mutagenesis and verified by sequencing. To increase surface expression and macroscopic currents, measurements of THIK-2 channels used a mutated ER retention motif, (R11A R12A R14A R15A R16A; THIK-2*)[20]. Vector DNA was linearized with NheI or MluI, and mRNA was synthesized in vitro using the SP6 or T7 AmpliCap Max High Yield Message Maker Kit (Cellscript, USA) or HiScribe T7 ARCA mRNA Kit (New England Biolabs).
Two-electrode voltage–clamp (TEVC) studies were performed in Xenopus oocytes. All animal use conformed to the Guide for the Care and Use of Laboratory Animals (NIH Publication 85–23), and all experiments using Xenopus toads were approved by the local ethics panels. Oocytes were stored at 17 °C in ND96 recording solution composed of (in mM): 96 NaCl, 2 KCl, 1.8 CaCl2, 1 MgCl2, 5 HEPES (pH 7.5 adjusted with NaOH and HCl), supplemented with Na-pyruvate (275 mg L^–1), theophylline (90 mg L^–1) and gentamicin (50 mg L^–1). Oocytes were injected with 1 ng mRNA for WT or mutant channels, and were incubated for 24–48 h at 17 °C. Two-electrode voltage clamp recordings were then performed as previously described[42],[43]. For macroscopic patch–clamp measurements, oocytes were obtained as described above incubated at 17 °C in a solution containing (mM): 54 NaCl, 30 KCl, 2.4 NaHCO3, 0.82 MgSO4 ×7 H2O, 0.41 CaCl2, 0.33 Ca(NO3)2 ×4 H2O and 7.5 TRIS (pH 7.4 adjusted with NaOH and HCl) for 1–4 days before use. Excised patch recordings in inside-out configuration conditions were performed at room temperature. Patch pipettes were made from thick-walled borosilicate glass GB 200TF-8P (Science Products), had resistances of 0.2–0.5 MΩ (tip diameter, 10–25 µm) and filled with a pipette solution (in mM): 120 KCl, 10 HEPES and 3.6 CaCl2 (pH 7.4 adjusted with KOH and HCl). Intracellular bath solutions and compounds were applied to the cytoplasmic side of excised patches for the various K^+ channels through a gravity flow multi-barrel pipette system. The intracellular solution had the following composition (in mM): 120 KCl, 10 HEPES, 2 EGTA and 1 pyrophosphate (pH adjusted with KOH and HCl). Currents were recorded with an EPC10 amplifier (HEKA Electronics) and sampled at 10 kHz or higher, with filtering set to 3 kHz (–3 dB) or higher, as appropriate for sampling rate. For measurements of GPCR activation, whole-cell currents were recorded for THIK-1 in transiently transfected HEK-293 cells. Cells were stimulated by a ramp protocol between −100 and +60 mV (holding potential, −80 mV). The pipette solution was composed of (in mM): 140 KCl, 2 MgCl2, 1 CaCl2, 2.5 EGTA and 10 HEPES (pH 7.3 adjusted with KOH and HCl). The extracellular bath solution had the following composition (in mM): 135 NaCl, 5 KCl, 2 MgCl2, 2 CaCl2, 10 glucose and 10 HEPES pH (pH 7.3 adjusted with NaOH and HCl). Oxotremorine M (Oxo-M) was added to extracellular bath solution to obtain the final concentration. Single-channel currents were recorded with an Axopatch 200B amplifier through a Digidata 1440A digitizer (Molecular Devices). Data were filtered at 2 kHz and recorded at a 200-kHz sampling rate with the program Clampex (Molecular Devices). Pipette solution and bath solution for cell-attached recordings contained (in mM): 140 KCl, 2 MgCl2, 1 CaCl2 and 10 HEPES (pH 7.4 adjusted with KOH and HCl). For inside-out recordings, the bath solution contained (in mM): 140 KCl, 2 MgCl2, 1 CaCl2 and 10 HEPES (pH 7.2 adjusted with KOH and HCl). All experiments were conducted at room temperature. […]

The mark [1] stands for this setting: THIK-2* WT (unstimulated), mean.
[2] abbreviates: THIK-2* WT, individual recordings.

`CCCCC[N+](CCCCC)(CCCCC)CCCCC` [TPenA, tetrapentylammonium] displayed a Normalized currents (0.1 µM TPenA) of 0.99; a Normalized currents (1 µM TPenA) of 0.98; a Normalized currents (10 µM TPenA) of 0.94; a Normalized currents (100 µM TPenA) of 0.71; a Normalized currents (1000 µM TPenA) of 0.41; a Normalized currents (5000 µM TPenA) of 0.35. Further, the “τ of 1 mM TPenA block” value under setting [1] was 3.83 s; the “τ of 1 mM TPenA block” value under setting [2] is 5.710 s and 3.800 s and 2.660 s and 5.630 s and 4.260 s and 2.170 s and 2.560 s. Also, the “τ of 1 mM TPenA release” value was 3.40 s under setting [1]; 4.580 s and 3.250 s and 3.550 s and 3.310 s and 3.680 s and 2.030 s under setting [2].
